Values quoted from earlier work, collected in patent US20240226024A1 (Empros Pharma AB, priority 2021, published 2024).

Experiments:
[1] = for Fraction of the dose absorbed: oral administration
[2] = for Placebo adjusted reduction of body weight: oral administration for 6 months; for Additional weight loss relative to placebo at one year: on average
[3] = not given; remark: listed apart in the source

OCCN1C[C@H](O)[C@@H](O)[C@H](O)[C@H]1CO [Miglitol, miglitol]
Fraction of the dose absorbed [1]: 100%

C[C@H]1O[C@H](O[C@H]2[C@H](O)[C@@H](O)[C@@H](O[C@H]3[C@H](O)[C@@H](O)C(O)O[C@@H]3CO)O[C@@H]2CO)[C@H](O)[C@@H](O)[C@@H]1N[C@H]1C=C(CO)[C@@H](O)[C@H](O)[C@H]1O (stereo partly drawn) [acarbose, O-4,6-Dideoxy-4-[[(1S,4R,5S,6S)-4,5,6-trihydroxy-3-(hydroxymethyl)cyclohex-2-enyl]amino]-α-D-glucopyranosyl-(1→4)-O-α-D-gluco-pyranosyl-(1→4)-D-glucopyranose]
Placebo adjusted reduction of body weight [2]: approx. 0.5%

C[C@H]1CNCCc2ccc(Cl)cc21 [lorcaserin]
Decrease of body weight more than placebo ([2]; human, in vivo): about 3.2 kg | Decrease of body weight more than placebo, % of initial body weight ([2]; human, in vivo): about 3.2% | Additional weight loss relative to placebo at one year [2]: ~3%

CCCCCCCCCCC[C@@H](C[C@@H]1OC(=O)[C@H]1CCCCCC)OC(=O)[C@H](CC(C)C)NC=O [orlistat, (S)-((S)-1-((2S,3S)-3-Hexyl-4-oxooxetan-2-yl)tridecan-2-yl) 2-formamido-4-methylpentanoate]
Relative weight loss, best case scenario ([2]; conventional dosage form, placebo 6%): 10% | Approximate relative weight loss, conventional dosage form ([2]; conventional dosage forms): 2-3% | Additional weight loss relative to placebo at one year [2]: ~3% | Placebo adjusted reduction of body weight [2]: 2-3% | Fraction of the dose absorbed [1]: < 3% | Plasma exposure ([1]; oral, conventional dosage form): < 5 ng/mL | Solubility in water (in words): practically insoluble in water | Water solubility: less than 0.001 g/ml | log P: 8.5 | Participants who reported faecal incontinence, similar 6-month trial ([3]; 6-month trial): 5% | Patients who complain about GI side-effects in clinical trials ([3]; diarrhea, oily spotting and fecal urgency): ≥ 25% | Participants who reported faecal incontinence, trials of longer duration ([3]; trials of longer duration): approximately 18%

OCC(CO)N[C@H]1C[C@](O)(CO)[C@@H](O)[C@H](O)[C@H]1O [voglibose]
Fraction of the dose absorbed [1]: only negligibly absorbed
